Assay results published in patent US20260209234A1, “SUBSTITUTED DIHYDROPYRROLO[3,4-D]PYRIMIDINE COMPOUNDS AND THEIR USE IN TREATING MEDICAL CONDITIONS” (Karuna Therapeutics, Inc., priority 2022, published 2026).

Experiments:
hM4 receptors = biological target: T1, hM4 receptors (Homo sapiens, UniProt P08173); experiment: Human M4 PAM pERK assay; format: cell-based; conditions: CHO cells expressing hM4; EC20 of acetylcholine (10 nM final); TR-FRET
T1 construct: expressed in transfected cells; host or cells: CHO cells
T1 sequence (P08173 1-479): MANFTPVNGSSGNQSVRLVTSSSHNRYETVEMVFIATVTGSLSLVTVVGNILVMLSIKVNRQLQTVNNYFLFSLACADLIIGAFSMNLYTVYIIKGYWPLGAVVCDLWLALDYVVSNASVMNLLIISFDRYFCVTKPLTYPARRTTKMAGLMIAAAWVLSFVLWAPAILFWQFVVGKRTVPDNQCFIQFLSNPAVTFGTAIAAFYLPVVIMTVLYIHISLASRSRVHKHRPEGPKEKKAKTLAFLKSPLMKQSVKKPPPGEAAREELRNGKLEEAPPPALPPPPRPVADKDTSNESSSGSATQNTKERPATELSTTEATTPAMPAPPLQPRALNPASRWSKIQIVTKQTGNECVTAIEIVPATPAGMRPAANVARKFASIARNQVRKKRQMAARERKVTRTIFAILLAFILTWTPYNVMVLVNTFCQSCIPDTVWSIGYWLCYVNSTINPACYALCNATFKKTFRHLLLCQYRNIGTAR

rM4 receptors = biological target: T2, rM4 receptors (Rattus norvegicus, UniProt P08485); experiment: Rat M4 PAM pERK assay; format: cell-based; conditions: CHO cells expressing rM4; EC20 of acetylcholine (10 nM final); TR-FRET
T2 construct: expressed in transfected cells; host or cells: CHO cells
T2 sequence (P08485 1-478): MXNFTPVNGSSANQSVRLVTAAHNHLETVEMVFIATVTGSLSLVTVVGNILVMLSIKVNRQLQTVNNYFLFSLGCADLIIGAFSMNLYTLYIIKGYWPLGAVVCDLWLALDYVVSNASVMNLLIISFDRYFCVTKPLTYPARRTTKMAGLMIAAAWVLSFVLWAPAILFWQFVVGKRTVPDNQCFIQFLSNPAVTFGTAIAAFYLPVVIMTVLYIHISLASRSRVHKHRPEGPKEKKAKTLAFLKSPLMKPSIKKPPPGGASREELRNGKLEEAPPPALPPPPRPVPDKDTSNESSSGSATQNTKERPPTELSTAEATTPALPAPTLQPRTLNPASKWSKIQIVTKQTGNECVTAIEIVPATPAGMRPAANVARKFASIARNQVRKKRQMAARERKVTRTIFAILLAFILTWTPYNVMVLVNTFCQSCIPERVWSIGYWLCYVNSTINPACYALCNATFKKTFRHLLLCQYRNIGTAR

human M4 receptor = biological target: T3, human M4 receptor (Homo sapiens, UniProt P08173); experiment: M4 GTPγS PAM assay; format: biochemical; conditions: membranes of CHO-K1 cells stably expressing human M4; EC20 acetylcholine 40 nM; 35S-GTP
T3 construct: expressed in transfected cells
T3 sequence (P08173 1-479): T1 sequence (P08173 1-479)
Procedure: The M4 GTPγS PAM method was used. Membranes were prepared for GTPgS binding assays from CHO-K1 cells stably expressing human M4 receptor. Briefly, cells were grown in 5-layer cell culture flasks. Cells were washed with 50 mL of PBS and then dissociated with 0.05% trypsin. Dissociated cells were then collected by centrifugation at 650×g for 8 minutes at 4° C. Pellets were washed again in PBS by centrifugation and resuspended in 30 mL of 20 mM HEPES, 10 mM EDTA, pH 7.4. After sitting on ice for 30 min, membranes were collected by centrifugation at 50000×g for 15′ at 4° C., resuspended in 30 mL of 20 mM HEPES, 0.1 mM EDTA, pH 7.4 and collected again by centrifugation. Pellets were then washed twice by centrifugation in 30 mL of 20 mM HEPES, pH 7.4, and stored at −80° C. until the day of the assay. On the day of the assay, pellets were thawed on ice and resuspended in 1 mL of 20 mM HEPES, pH 7.4, 10 mM MgCl2, 100 mM NaCl using dounce homogenization. Membrane protein concentration is determined by BCA protein assay (Promega, Madison, WI) according to Promega guidelines.
On the day of the assay, serial dilutions of test PAM compounds were brought up in assay buffer (20 mM HEPES, 10 mM MgCl2, 100 mM NaCl) at 4× final assay concentration. […] of membrane homogenates (containing […] of membrane protein) were prepared in assay buffer supplemented with GDP at 4× final assay concentration (final assay concentration of GDP is 5 μM for M2 and 0.1 μM for M4) and dispensed into 96 well polypropylene, U-bottom Greiner plates. […] of vehicle or test PAM compound at 4× of final assay concentration diluted in the assay buffer were added to membrane and plates are incubated for 10-15 minutes at room temperature with gentle shaking. Then, […] of EC20 acetylcholine in assay buffer at 4× final assay concentration was added to assay plates (EC20 final assay concentrations was 40 nM for human M4).
Plates were then incubated, with shaking, for an additional 10-15 minutes. […] of 0.4 nM 35S-GTP (Perkin Elmer, Waltham, MA) in assay buffer was added to assay mixtures. The binding reaction is left on the shaker for 1 hour at room temperature. Membranes in assay reactions were then transferred to GF/C filter plates (Unifilter, Perkin Elmer) and washed three times using a FilterMate Harvester (Perkin Elmer) with cold assay buffer containing no GDP. Filter plates were then dried at 40° C. overnight followed by the addition of […] of Beta Plate Scintillation liquid. Plates are top and bottom sealed before being read on TopCount scintillation counter (Perkin Elmer, Waltham, MA).

| SMILES | EC50 (hM4 receptors) | EC50 (rM4 receptors) | EC50 (human M4 receptor) |
| --- | --- | --- | --- |
| COc1nc(C#N)nc2c1C(C)N(C(=O)CC1CN(c3ccc(C4CC4)nc3)C1)C2 (single isomer, unassigned) [Compound I-33, 6-(2-(1-(6-Cyclopropylpyridin-3-yl)azetidin-3-yl)acetyl)-4-methoxy-5-methyl-6,7-dihydro-5H-pyrrolo[3,4-d]pyrimidine-2-carbonitrile] | ≤ 100 nM | 100 to 500 nM | 100 to 500 nM |
| COc1nc(C#N)nc2c1CN(C(=O)CC1CN(c3ccnc(C(F)(F)F)c3)C1)C2C (single isomer, unassigned) [Compound I-34, 4-Methoxy-7-methyl-6-(2-(1-(2-(trifluoromethyl)pyridin-4-yl)azetidin-3-yl)acetyl)-6,7-dihydro-5H-pyrrolo[3,4-d]pyrimidine-2-carbonitrile] | 500 to 2000 nM | ≥ 2000 nM | 500 to 2000 nM |
| COc1nc(C#N)nc2c1CN(C(=O)CC1CN(c3ccnc(C(F)(F)F)c3)C1)C2C (single isomer, unassigned) [Compound I-35, 4-Methoxy-7-methyl-6-(2-(1-(2-(trifluoromethyl)pyridin-4-yl)azetidin-3-yl)acetyl)-6,7-dihydro-5H-pyrrolo[3,4-d]pyrimidine-2-carbonitrile] | 100 to 500 nM | 500 to 2000 nM | ≥ 2000 nM |
| COc1nc(C#N)nc2c1C(C)N(C(=O)CC1CN(c3ccnc(C(F)(F)F)c3)C1C)C2 (single isomer, unassigned) [Compound I-36, 4-Methoxy-5-methyl-6-(2-(2-methyl-1-(2-(trifluoromethyl)pyridin-4-yl)azetidin-3-yl)acetyl)-6,7-dihydro-5H-pyrrolo[3,4-d]pyrimidine-2-carbonitrile] | ≤ 100 nM | ≤ 100 nM | ≤ 100 nM |
| COc1nc(C#N)nc2c1C(C)N(C(=O)CC1CN(c3ccnc(C(F)(F)F)c3)C1C)C2 (single isomer, unassigned) [Compound I-37, 4-Methoxy-5-methyl-6-(2-(2-methyl-1-(2-(trifluoromethyl)pyridin-4-yl)azetidin-3-yl)acetyl)-6,7-dihydro-5H-pyrrolo[3,4-d]pyrimidine-2-carbonitrile] | ≤ 100 nM | 100 to 500 nM | ≤ 100 nM |
| COc1nc(C#N)nc2c1C(C)N(C(=O)CC1CN(c3ccnc(C(F)(F)F)c3)C1C)C2 (single isomer, unassigned) [Compound I-38, 4-Methoxy-5-methyl-6-(2-(2-methyl-1-(2-(trifluoromethyl)pyridin-4-yl)azetidin-3-yl)acetyl)-6,7-dihydro-5H-pyrrolo[3,4-d]pyrimidine-2-carbonitrile] | 100 to 500 nM | 500 to 2000 nM | 500 to 2000 nM |
| COc1nc(C#N)nc2c1C(C)N(C(=O)CC1CN(c3ccnc(C(F)(F)F)c3)C1C)C2 (single isomer, unassigned) [Compound I-39, 4-Methoxy-5-methyl-6-(2-(2-methyl-1-(2-(trifluoromethyl)pyridin-4-yl)azetidin-3-yl)acetyl)-6,7-dihydro-5H-pyrrolo[3,4-d]pyrimidine-2-carbonitrile] | 500 to 2000 nM | 500 to 2000 nM | ≥ 2000 nM |
| COc1nc(C)nc2c1C(C)N(C(=O)CC1CN(c3ccnc(C(F)(F)F)c3)C1)C2 (single isomer, unassigned) [Compound I-53, 1-(4-Methoxy-2,5-dimethyl-5,7-dihydro-6H-pyrrolo[3,4-d]pyrimidin-6-yl)-2-(1-(2-(trifluoromethyl)pyridin-4-yl)azetidin-3-yl)ethan-1-one] | ≥ 2000 nM | ≥ 2000 nM | ≥ 2000 nM |
| COc1nc(C)nc2c1C(C)N(C(=O)CC1CN(c3cccc(C#N)c3)C1)C2 (single isomer, unassigned) [Compound I-54, 3-(3-(2-(4-Methoxy-2,5-dimethyl-5,7-dihydro-6H-pyrrolo[3,4-d]pyrimidin-6-yl)-2-oxoethyl)azetidin-1-yl)benzonitrile] | ≥ 2000 nM | ≥ 2000 nM | ≥ 2000 nM |
| COc1nc(C)nc2c1C(C)N(C(=O)CC1CN(c3cccc(C#N)c3)C1)C2 (single isomer, unassigned) [Compound I-55, 3-(3-(2-(4-Methoxy-2,5-dimethyl-5,7-dihydro-6H-pyrrolo[3,4-d]pyrimidin-6-yl)-2-oxoethyl)azetidin-1-yl)benzonitrile] | 500 to 2000 nM | 500 to 2000 nM | ≥ 2000 nM |
| COc1nc(C)nc2c1C(C)N(C(=O)CC1CN(c3ccc(C#N)cc3)C1)C2 (single isomer, unassigned) [Compound I-56, 4-(3-(2-(4-Methoxy-2,5-dimethyl-5,7-dihydro-6H-pyrrolo[3,4-d]pyrimidin-6-yl)-2-oxoethyl)azetidin-1-yl)benzonitrile] | ≤ 100 nM | 100 to 500 nM | 100 to 500 nM |
| COc1nc(C)nc2c1C(C)N(C(=O)CC1CN(c3ccc(C#N)cc3)C1)C2 (single isomer, unassigned) [Compound I-57, 4-(3-(2-(4-Methoxy-2,5-dimethyl-5,7-dihydro-6H-pyrrolo[3,4-d]pyrimidin-6-yl)-2-oxoethyl)azetidin-1-yl)benzonitrile] | ≥ 2000 nM | ≥ 2000 nM | 500 to 2000 nM |
| COc1nc(C)nc2c1C(C)N(C(=O)CC1CN(c3cncnc3)C1)C2 (single isomer, unassigned) [Compound I-60, 1-(4-Methoxy-2,5-dimethyl-5,7-dihydro-6H-pyrrolo[3,4-d]pyrimidin-6-yl)-2-(1-(pyrimidin-5-yl)azetidin-3-yl)ethan-1-one] | ≥ 2000 nM | ≥ 2000 nM | ≥ 2000 nM |
| COc1nc(C)nc2c1CN(C(=O)CC1CN(c3ccnc(C(F)(F)F)c3)C1)C2C (single isomer, unassigned) [Compound I-62, 1-(4-Methoxy-2,7-dimethyl-5,7-dihydro-6H-pyrrolo[3,4-d]pyrimidin-6-yl)-2-(1-(2-(trifluoromethyl)pyridin-4-yl)azetidin-3-yl)ethan-1-one] | 100 to 500 nM | 500 to 2000 nM | 100 to 500 nM |
| COc1nc(C)nc2c1CN(C(=O)CC1CN(c3ccnc(C(F)(F)F)c3)C1)C2C (single isomer, unassigned) [Compound I-63, 1-(4-Methoxy-2,7-dimethyl-5,7-dihydro-6H-pyrrolo[3,4-d]pyrimidin-6-yl)-2-(1-(2-(trifluoromethyl)pyridin-4-yl)azetidin-3-yl)ethan-1-one] | 500 to 2000 nM | ≥ 2000 nM | 500 to 2000 nM |
